# Reference: PubChem BioAssay (NCI)
#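 Grown in 96-well plates, cells were treated for 48 hours with each compound at five concentrations. Insufficient inhibition: endpoint recorded as highest concentration tested. TGI denotes the concentration required for complete inhibition of growth.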
# Experiments:
# Test in all cases: NCI tumour cell line growth inhibition, 48 h
# [1] = system: M19-MEL melanoma
# [2] = system: SNB-78 CNS
# [3] = system: OVCAR-5 ovarian
# [4] = system: TK-10 renal
# [5] = system: DMS 273 small cell lung
# [6] = system: A549 NSCLC
# [7] = system: KM12 colon
# [8] = system: SF-268 CNS
# [9] = system: NCI-H522 lung
# [10] = system: SK-MEL-5 melanoma
# [11] = system: HL-60(TB) leukemia
# [12] = system: RXF-631 renal
# [13] = system: SR leukemia
# [14] = system: SK-MEL-28 melanoma
# [15] = system: NCI-H23 lung
# [16] = system: SNB-19 CNS
# [17] = system: OVCAR-8 ovarian
# [18] = system: UACC-62 melanoma
# [19] = system: HCT-15 colon
# [20] = system: KM20L2 colon
# [21] = system: RPMI-8226 leukemia
# [22] = system: HOP-62 NSCLC
# [23] = system: HCT-116 colon
# [24] = system: OVCAR-4 ovarian
# [25] = system: UO-31 renal
# [26] = system: EKVX NSCLC
# [27] = system: M14 melanoma
# [28] = system: SF-539 CNS
# [29] = system: SN12C renal
# [30] = system: LOX IMVI melanoma
# [31] = system: MOLT-4 leukemia
# [32] = system: RXF 393 renal
# [33] = system: CAKI-1 renal
# [34] = system: NCI-H226 lung
# [35] = system: A498 renal
# [36] = system: IGROV1 ovarian
# [37] = system: DMS 114 small cell lung
# [38] = system: SW-620 colon
# [39] = system: NCI-H460 lung
# [40] = system: K-562 leukemia
# [41] = system: HOP-92 NSCLC
# [42] = system: COLO 205 colon
# [43] = system: HCC-2998 colon
# [44] = system: HT29 colon
# [45] = system: LXFL 529 NSCLC
# [46] = system: U251 CNS
# [47] = system: CCRF-CEM leukemia
# [48] = system: SK-MEL-2 melanoma
# [49] = system: DLD-1 colon
# [50] = system: SF-295 CNS
# [51] = system: ACHN renal
# [52] = system: UACC-257 melanoma
# [53] = system: SK-OV-3 ovarian
# [54] = system: XF 498 CNS
# [55] = system: SNB-75 CNS
# [56] = system: MALME-3M melanoma
# [57] = system: OVCAR-3 ovarian
# [58] = system: HOP-18 NSCLC
# [59] = system: 786-0 renal
smiles,measurement,setting,value
COC(=O)C(Cc1cc(OC)c(OC)c(OC)c1)(NC(=O)c1ccccc1)P(=O)(OC)OC (configuration not stated),TGI,[1],> 100 µM
same,TGI,[2],> 100 µM
same,TGI,[3],> 100 µM
same,TGI,[4],> 100 µM
same,TGI,[5],> 100 µM
same,TGI,[6],> 100 µM
same,TGI,[7],> 100 µM
same,TGI,[8],> 100 µM
same,TGI,[9],> 100 µM
same,TGI,[10],> 100 µM
same,TGI,[11],> 100 µM
same,TGI,[12],> 100 µM
same,TGI,[13],> 100 µM
same,TGI,[14],> 100 µM
same,TGI,[15],> 100 µM
same,TGI,[16],> 100 µM
same,TGI,[17],> 100 µM
same,TGI,[18],> 100 µM
same,TGI,[19],> 100 µM
same,TGI,[20],> 100 µM
same,TGI,[21],> 100 µM
same,TGI,[22],> 100 µM
same,TGI,[23],> 100 µM
same,TGI,[24],> 100 µM
same,TGI,[25],> 100 µM
same,TGI,[26],> 100 µM
same,TGI,[27],> 100 µM
same,TGI,[28],> 100 µM
same,TGI,[29],> 100 µM
same,TGI,[30],> 100 µM
same,TGI,[31],> 100 µM
same,TGI,[32],> 100 µM
same,TGI,[33],> 100 µM
same,TGI,[34],> 100 µM
same,TGI,[35],> 100 µM
same,TGI,[36],> 100 µM
same,TGI,[37],> 100 µM
same,TGI,[38],> 100 µM
same,TGI,[39],> 100 µM
same,TGI,[40],> 100 µM
same,TGI,[41],> 100 µM
same,TGI,[42],> 100 µM
same,TGI,[43],> 100 µM
same,TGI,[44],> 100 µM
same,TGI,[45],> 100 µM
same,TGI,[46],> 100 µM
same,TGI,[47],> 100 µM
same,TGI,[48],> 100 µM
same,TGI,[49],> 100 µM
same,TGI,[50],> 100 µM
same,TGI,[51],> 100 µM
same,TGI,[52],> 100 µM
same,TGI,[53],> 100 µM
same,TGI,[54],> 100 µM
same,TGI,[55],> 100 µM
CC1(C)OC(=O)C(c2ccsc2)C(=O)O1,TGI,[1],> 100 µM
same,TGI,[2],> 100 µM
same,TGI,[3],> 100 µM
same,TGI,[4],> 100 µM
same,TGI,[56],> 100 µM
same,TGI,[57],> 100 µM
same,TGI,[5],> 100 µM
same,TGI,[6],> 100 µM
same,TGI,[7],> 100 µM
same,TGI,[8],> 100 µM
same,TGI,[9],> 100 µM
same,TGI,[10],> 100 µM
same,TGI,[11],> 100 µM
same,TGI,[12],> 100 µM
same,TGI,[13],> 100 µM
same,TGI,[14],> 100 µM
same,TGI,[15],> 100 µM
same,TGI,[16],> 100 µM
same,TGI,[58],> 100 µM
same,TGI,[17],> 100 µM
same,TGI,[18],> 100 µM
same,TGI,[19],> 100 µM
same,TGI,[20],> 100 µM
same,TGI,[21],> 100 µM
same,TGI,[22],> 100 µM
same,TGI,[23],> 100 µM
same,TGI,[24],> 100 µM
same,TGI,[25],> 100 µM
same,TGI,[26],> 100 µM
same,TGI,[27],> 100 µM
same,TGI,[28],> 100 µM
same,TGI,[29],> 100 µM
same,TGI,[30],> 100 µM
same,TGI,[31],> 100 µM
same,TGI,[32],> 100 µM
same,TGI,[33],> 100 µM
same,TGI,[34],> 100 µM
same,TGI,[37],> 100 µM
same,TGI,[38],> 100 µM
same,TGI,[39],> 100 µM
same,TGI,[40],> 100 µM
same,TGI,[59],> 100 µM
same,TGI,[41],> 100 µM
same,TGI,[42],> 100 µM
same,TGI,[43],> 100 µM
same,TGI,[44],> 100 µM
same,TGI,[45],> 100 µM
same,TGI,[46],> 100 µM
same,TGI,[47],> 100 µM
same,TGI,[48],> 100 µM
same,TGI,[49],> 100 µM
same,TGI,[50],> 100 µM
same,TGI,[51],> 100 µM
same,TGI,[52],> 100 µM
same,TGI,[53],> 100 µM
same,TGI,[54],> 100 µM
same,TGI,[55],> 100 µM
O=C(c1ccccc1)C(c1ccccc1)C1(O)C(=O)Nc2ccc(Br)cc21 (configuration not stated),TGI,[1],30.6 µM
same,TGI,[2],> 100 µM
same,TGI,[3],> 100 µM
same,TGI,[4],> 100 µM
same,TGI,[56],> 100 µM
same,TGI,[57],> 100 µM
same,TGI,[5],> 100 µM
same,TGI,[6],> 100 µM
same,TGI,[7],> 100 µM
same,TGI,[8],> 100 µM
same,TGI,[9],59.6 µM
same,TGI,[11],48.2 µM
same,TGI,[12],> 100 µM
same,TGI,[13],> 100 µM
same,TGI,[14],> 100 µM
same,TGI,[15],> 100 µM
same,TGI,[16],> 100 µM
same,TGI,[17],> 100 µM
same,TGI,[18],39.2 µM
same,TGI,[19],> 100 µM
same,TGI,[20],> 100 µM
same,TGI,[21],98.9 µM
same,TGI,[22],> 100 µM
same,TGI,[23],> 100 µM
same,TGI,[24],> 100 µM
same,TGI,[25],> 100 µM
same,TGI,[26],> 100 µM
same,TGI,[27],> 100 µM
same,TGI,[28],> 100 µM
same,TGI,[29],> 100 µM
same,TGI,[31],> 100 µM
same,TGI,[32],> 100 µM
same,TGI,[33],> 100 µM
same,TGI,[34],> 100 µM
same,TGI,[35],> 100 µM
same,TGI,[36],> 100 µM
same,TGI,[37],50.5 µM
same,TGI,[38],> 100 µM
same,TGI,[39],> 100 µM
same,TGI,[40],80.8 µM
same,TGI,[59],> 100 µM
same,TGI,[41],> 100 µM
same,TGI,[42],> 100 µM
same,TGI,[43],> 100 µM
same,TGI,[44],> 100 µM
same,TGI,[45],53.1 µM
same,TGI,[46],> 100 µM
same,TGI,[47],47.7 µM
same,TGI,[48],> 100 µM
same,TGI,[49],> 100 µM
same,TGI,[50],> 100 µM
same,TGI,[51],> 100 µM
same,TGI,[52],53.8 µM
same,TGI,[53],> 100 µM
same,TGI,[55],> 100 µM
